From patent publication US12290588B2, “Peptide having activity of improving skin condition and use thereof” (CAREGEN CO., LTD., priority 2019, dated 2025)

Key:
AQP3 = test: RT-PCR of AQP3 expression in UV-irradiated keratinocytes; assay type: cell-based, human; details: HaCaT keratinocytes, UV 20 J/cm^2, peptide 10, 50 or 100 μM before and 6 hours after irradiation, PCR (FIG. 7)
Description: (§1) In this example, changes in the cellular activity of fibroblasts were evaluated through the expression of Col1a1, Fibronectin, and Elastin, which are known as components of the dermis. Also, changes in the cellular activity of keratinocytes were evaluated through the expression of SIRT1, which is an anti-aging gene, and AQP3, which is a component of the skin barrier. Based on the evaluation results, the effect of the peptide according to an embodiment on the restoration of the cellular activity of the fibroblasts and keratinocytes was confirmed. In detail, NIH3T3 mouse fibroblasts or HaCaT human keratinocytes were respectively seeded in a 6-sell plate at a density of 3×10^5 cells/well, and cultured for 16 hours. Afterwards, the culture medium was replaced with a serum-free medium, the peptide consisting of the amino acid sequence of SEQ ID NO: 1 was added thereto at a concentration of 10 μM, 50 μM, or 100 μM, and the cells were cultured for 1 hour. Each well containing the cultured cells was washed with PBS, and the NIH3T3 cells or the HaCaT cells were respectively irradiated with ultraviolet light of 6 J/cm^2 or 20 J/cm^2, so as to induce inhibition of the cellular activity. […]

PPAR-γ = test: RT-PCR of PPAR-γ expression in fibroblasts; assay type: cell-based; details: NIH3T3 mouse fibroblasts, peptide 10, 50 or 100 μM, 24 hours, PCR (FIG. 2)
Description: (§2) In this example, an effect the peptide according to an embodiment on the cellular activity of fibroblasts was to be confirmed by measuring the expression levels of PPAR-γ, PPAR-δ, and PGC-1α, which are mitochondrial biogenesis-related genes. In detail, NIH3T3 mouse fibroblasts were seeded in a 6-well plate at a density of 3×10^5 cells/well, and cultured for 16 hours. Afterwards, the culture medium was replaced with a serum-free medium, the peptide consisting of the amino acid sequence of SEQ ID NO: 1 was added thereto at a concentration of 10 μM, 50 μM, or 100 μM, and the cells were cultured for 24 hours. Then, mRNA was extracted from the cultured cells, and reverse-transcribed into cDNA by using a cDNA synthesis kit and PCR pre-mix (Intron, Korea). Afterwards, a polymerase chain reaction (PCR) was performed by using the cDNA and primers of PPAR-γ, PPAR-δ, and PGC-1α. Meanwhile, a control group and positive groups were used in the same manner as in Example 2, and the nucleotide sequences of the primers used herein are shown in Table 2.

COX-2 = test: RT-PCR of COX-2 expression in UV-irradiated keratinocytes; assay type: cell-based, human; details: HaCaT keratinocytes, peptide 10, 50 or 100 μM for 1 hour, UV 15 J/cm^2, PCR (FIG. 8)
Description: (§3) HaCaT human keratinocytes were seeded in a 6-well plate at a density of 3×10^5 cells/well, and cultured for 16 hours. Afterwards, the culture medium was replaced with a serum-free medium, the peptide consisting of the amino acid sequence of SEQ ID NO: 1 was added thereto at a concentration of 10 μM, 50 μM, or 100 μM, and the cells were cultured for 1 hour. Each well containing the cultured cells was washed with PBS, and the HaCaT cells were irradiated with ultraviolet light of 15 J/cm^2, so as to induce an increase in the expression of inflammatory cytokine which is an inflammatory factor. Then, mRNA was extracted from the cultured cells, and reverse-transcribed into cDNA by using a cDNA synthesis kit and PCR pre-mix (Intron, Korea). Afterwards, PCR was performed by using the cDNA and primers of TNF-α, COX-2, IL-1β, and IL-6. Meanwhile, a control group and a positive group were used in the same manner as in Example 4, and the nucleotide sequences of the primers used herein are shown in Table 5.

procollagen 1α = test: Procollagen 1α ELISA in fibroblast medium; assay type: cell-based; details: NIH3T3 mouse fibroblasts, peptide 10, 50 or 100 μM, 24 hours, ELISA of medium (FIG. 1)
Description: NIH3T3 mouse fibroblasts were seeded in a 6-well plate at a density of 5×10^3 cells/well, and cultured for 16 hours. Afterwards, the culture medium was replaced with a serum-free medium, the peptide consisting of the amino acid sequence of SEQ ID NO: 1 was added thereto at a concentration of 10 μM, 50 μM, or 100 μM, and the cells were cultured for 24 hours. Then, the amount of procollagen 1α in the medium was measured by using a Procollagen 1α ELISA kit (Us biological lifescience, USA). Meanwhile, a non-treated group (Con) was used as a control group, and a group to which 100 nM of bFGF was added and a group to which 5 ng/ml of TGF-β1 was added were used as positive control groups.

Elastin = test: RT-PCR of Elastin expression in UV-irradiated fibroblasts; assay type: cell-based, mouse; details: NIH3T3 fibroblasts, UV 6 J/cm^2, peptide 10, 50 or 100 μM before and 6 hours after irradiation, PCR (FIG. 6)
Description: as §1

cleaved caspase-3 [1] = test: Western blotting of cleaved caspase-3 in UV-irradiated keratinocytes; assay type: cell-based, human; details: HaCaT keratinocytes, UV 15 J/cm^2, peptide 10, 50 or 100 μM before and 24 hours after irradiation, western blotting (FIG. 4)
Description: (§4) NIH3T3 mouse fibroblasts or HaCaT human keratinocytes were respectively seeded in a 6-sell plate at a density of 3×10^5 cells/well, and cultured for 16 hours. Afterwards, the culture medium was replaced with a serum-free medium, the peptide consisting of the amino acid sequence of SEQ ID NO: 1 was added thereto at a concentration of 10 μM, 50 μM, or 100 μM, and the cells were cultured for 1 hour. Each well containing the cultured cells was washed with phosphate buffered saline (PBS), and the NIH3T3 cells or HaCaT cells were respectively irradiated with ultraviolet light of 6 J/cm^2 or 15 J/cm^2, so as to induce an increase in the expression of apoptosis proteins. Afterwards, the culture medium was replaced with a serum-free medium, the peptide consisting of the amino acid sequence of SEQ ID NO: 1 was added thereto at a concentration of 10 μM, 50 μM, or 100 μM, and the cells were cultured for 24 hours. Cell lysates were obtained by adding a lysis buffer to the cultured cells, and then, western blotting was performed thereon by using cleaved PARP-1 and cleaved caspase-3 antibodies (Santacruz biotechnology, USA). Meanwhile, a non-treated group (Con) was used as a control group. […]

cleaved PARP-1 = test: Western blotting of cleaved PARP-1 in UV-irradiated keratinocytes; assay type: cell-based, human; details: HaCaT keratinocytes, UV 15 J/cm^2, peptide 10, 50 or 100 μM before and 24 hours after irradiation, western blotting (FIG. 4)
Description: as §4

PGC-1α = test: RT-PCR of PGC-1α expression in fibroblasts; assay type: cell-based; details: NIH3T3 mouse fibroblasts, peptide 10, 50 or 100 μM, 24 hours, PCR (FIG. 2)
Description: as §2

MMP-1 = test: Western blotting of MMP-1 in UV-irradiated fibroblasts; assay type: cell-based, mouse; details: NIH3T3 fibroblasts, UV 6 J/cm^2, peptide 10, 50 or 100 μM before and 24 hours after irradiation, western blotting (FIG. 5)
Description: (§5) NIH3T3 mouse fibroblasts were seeded in a 6-well plate at a density of 3×10^5 cells/well, and cultured for 16 hours. Afterwards, the culture medium was replaced with a serum-free medium, the peptide consisting of the amino acid sequence of SEQ ID NO: 1 was added thereto at a concentration of 10 μM, 50 μM, or 100 μM, and the cells were cultured for 1 hour. Each well containing the cultured cells was washed with PBS, and the NIH3T3 cells were irradiated with ultraviolet light of 6 J/cm^2, so as to induce an increase in the expression of MMP-1 and MMP-2. Afterwards, the culture medium was replaced with a serum-free medium, the peptide consisting of the amino acid sequence of SEQ ID NO: 1 was added thereto at a concentration of 10 μM, 50 μM, or 100 μM, and the cells were cultured for 24 hours. Afterwards, cell lysates were obtained by adding a lysis buffer to the cultured cells, and then, western blotting was performed thereon by using MMP-1 antibodies (cell signaling, USA) to measure the expression of MMP-1.

IL-6 = test: RT-PCR of IL-6 expression in UV-irradiated keratinocytes; assay type: cell-based, human; details: HaCaT keratinocytes, peptide 10, 50 or 100 μM for 1 hour, UV 15 J/cm^2, PCR (FIG. 8)
Description: as §3

IL-1β = test: RT-PCR of IL-1β expression in UV-irradiated keratinocytes; assay type: cell-based, human; details: HaCaT keratinocytes, peptide 10, 50 or 100 μM for 1 hour, UV 15 J/cm^2, PCR (FIG. 8)
Description: as §3

cleaved caspase-3 [2] = test: Western blotting of cleaved caspase-3 in UV-irradiated fibroblasts; assay type: cell-based, mouse; details: NIH3T3 fibroblasts, UV 6 J/cm^2, peptide 10, 50 or 100 μM before and 24 hours after irradiation, western blotting (FIG. 3)
Description: as §4

MMP-2 = test: Gelatin zymography of MMP-2 activity in UV-irradiated fibroblasts; assay type: cell-based, mouse; details: NIH3T3 fibroblasts, UV 6 J/cm^2, peptide 10, 50 or 100 μM before and 24 hours after irradiation, gelatin zymography (FIG. 5)
Description: as §5
Meanwhile, the cell lysates were subjected to gelatin zymography to measure the activity of MMP-2. In detail, after protein electrophoresis (SDS-PAGE) was performed by using 2 mg/ml of gelatin as a substrate. […]

PPAR-δ = test: RT-PCR of PPAR-δ expression in fibroblasts; assay type: cell-based; details: NIH3T3 mouse fibroblasts, peptide 10, 50 or 100 μM, 24 hours, PCR (FIG. 2)
Description: as §2

Col1a1 = test: RT-PCR of Col1a1 expression in UV-irradiated fibroblasts; assay type: cell-based, mouse; details: NIH3T3 fibroblasts, UV 6 J/cm^2, peptide 10, 50 or 100 μM before and 6 hours after irradiation, PCR (FIG. 6)
Description: as §1

Fibronectin = test: RT-PCR of Fibronectin expression in UV-irradiated fibroblasts; assay type: cell-based, mouse; details: NIH3T3 fibroblasts, UV 6 J/cm^2, peptide 10, 50 or 100 μM before and 6 hours after irradiation, PCR (FIG. 6)
Description: as §1

TNF-α = test: RT-PCR of TNF-α expression in UV-irradiated keratinocytes; assay type: cell-based, human; details: HaCaT keratinocytes, peptide 10, 50 or 100 μM for 1 hour, UV 15 J/cm^2, PCR (FIG. 8)
Description: as §3

SIRT1 = test: RT-PCR of SIRT1 expression in UV-irradiated keratinocytes; assay type: cell-based, human; details: HaCaT keratinocytes, UV 20 J/cm^2, peptide 10, 50 or 100 μM before and 6 hours after irradiation, PCR (FIG. 7)
Description: as §1

ECEELEEK (Peptide 1) [SEQ ID NO: 1]
expression of AQP3 reduced by ultraviolet irradiation (AQP3): restored | expression of PPAR-γ (PPAR-γ): increased | expression of COX-2 increased by ultraviolet irradiation (COX-2): reduced | expression of procollagen 1α (procollagen 1α): increased | expression of Elastin inhibited by ultraviolet irradiation (Elastin): restored back to normal levels | expression of cleaved caspase-3 increased by ultraviolet irradiation (cleaved caspase-3 [1]): significantly reduced | expression of cleaved PARP-1 increased by ultraviolet irradiation (cleaved PARP-1): significantly reduced | expression of PGC-1α (PGC-1α): increased | expression of MMP-1 increased by ultraviolet irradiation (MMP-1): reduced | expression of IL-6 increased by ultraviolet irradiation (IL-6): reduced | expression of IL-1β increased by ultraviolet irradiation (IL-1β): reduced | expression of cleaved caspase-3 increased by ultraviolet irradiation (cleaved caspase-3 [2]): reduced | activity of MMP-2 increased by ultraviolet irradiation (MMP-2): reduced | expression of PPAR-δ (PPAR-δ): increased | expression of Col1 a1 inhibited by ultraviolet irradiation (Col1a1): restored back to normal levels | expression of Fibronectin inhibited by ultraviolet irradiation (Fibronectin): restored back to normal levels | expression of TNF-α increased by ultraviolet irradiation (TNF-α): reduced | expression of SIRT1 reduced by ultraviolet irradiation (SIRT1): restored
